In US8481556B2, “Piperidinone carboxamide azaindane CGRP receptor antagonists” (Merck, Sharp & Dohms, Corp., priority 2010, dated 2013):
Structures can show the parent of a compound that is named as a salt. One block for each molecule: values may come before it. Ends that are not written are not given here.

Legend:
migraine = conditions: cited from earlier work
facial blood flow [1] = conditions: marmoset, electrical stimulation of the trigeminal ganglion (Doods et al. 2000); cited from earlier work
[2] = molecular target: T1, recombinant human CL receptor/RAMP1 (Homo sapiens, UniProt O60894+Q16602); assay: Recombinant receptor binding assay (125I-hCGRP); conditions: exemplary compounds of the invention
T1 construct: expressed in transfected cells; membranes used
Experimental: Human CL receptor (Genbank accession number L76380) was subcloned into the expression vector pIREShyg2 (BD Biosciences Clontech) as a 5′NheI and 3′ PmeI fragment. Human RAMP1 (Genbank accession number AJ001014) was subcloned into the expression vector pIRESpuro2 (BD Biosciences Clontech) as a 5′NheI and 3′NotI fragment. […] Cells were subcultured by treatment with 0.25% trypsin with 0.1% EDTA in HBSS. Stable cell line generation was accomplished by co-transfecting 10 μg of DNA with 30 μg Lipofectamine 2000 (Invitrogen) in 75 cm^2 flasks. CL receptor and RAMP1 expression constructs were co-transfected in equal amounts. Twenty-four hours after transfection the cells were diluted and selective medium (growth medium+300 μg/mL hygromycin and 1 μg/mL puromycin) was added the following day. A clonal cell line was generated by single cell deposition utilizing a FACS Vantage SE (Becton Dickinson). Growth medium was adjusted to 150 μg/mL hygromycin and 0.5 μg/mL puromycin for cell propagation.
The cell suspension was disrupted with a laboratory homogenizer and centrifuged at 48,000 g to isolate membranes. The pellets were resuspended in harvest buffer plus 250 mM sucrose and stored at −70° C. […] Scintillation fluid was added and the plates were counted on a Topcount (Packard).

facial blood flow [3] = conditions: rat, trigeminal ganglion stimulation (Escott et al. 1995); cited from earlier work
middle meningeal artery = conditions: rats, electrical stimulation of the dura mater, prior administration (Williamson et al. 1997); cited from earlier work

T1 sequence (Q16602 23-461): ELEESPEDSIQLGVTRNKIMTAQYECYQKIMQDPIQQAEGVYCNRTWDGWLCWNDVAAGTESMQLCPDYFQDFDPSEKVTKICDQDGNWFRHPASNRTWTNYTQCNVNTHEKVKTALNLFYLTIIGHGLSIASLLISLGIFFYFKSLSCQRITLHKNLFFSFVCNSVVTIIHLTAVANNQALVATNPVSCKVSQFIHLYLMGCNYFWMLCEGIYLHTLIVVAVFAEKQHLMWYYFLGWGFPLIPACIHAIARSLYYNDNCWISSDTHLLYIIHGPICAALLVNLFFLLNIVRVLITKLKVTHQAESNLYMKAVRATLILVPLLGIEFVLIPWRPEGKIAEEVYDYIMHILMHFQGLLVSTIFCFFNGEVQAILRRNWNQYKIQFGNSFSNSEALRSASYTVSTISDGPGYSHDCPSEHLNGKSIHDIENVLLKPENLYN
T1 sequence (O60894 27-148): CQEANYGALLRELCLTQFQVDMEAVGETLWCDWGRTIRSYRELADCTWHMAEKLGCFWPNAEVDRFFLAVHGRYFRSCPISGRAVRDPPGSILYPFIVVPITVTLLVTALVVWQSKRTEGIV

Molecule: O=C(N[C@@H]1CC[C@@H](c2cccc(F)c2F)CN(CC(F)(F)F)C1=O)N1CCC(n2c(=O)[nH]c3ncccc32)CC1 [telcagepant]
antimigraine effectiveness (migraine; phase III clinical trials (Ho et al. 2008; Connor et al. 2009)): shown antimigraine effectiveness

Molecule: NCCCC[C@H](NC(=O)[C@@H](Cc1cc(Br)c(O)c(Br)c1)NC(=O)N1CCC(N2Cc3ccccc3NC2=O)CC1)C(=O)N1CCN(c2ccncc2)CC1 [BIBN4096BS]
effect on increase in facial blood flow (facial blood flow [1]): could be blocked
effectiveness in treating acute attacks of migraine (migraine; clinical trials (Olesen et al. 2004)): effective in treating acute attacks of migraine

Ki [2]: 0.066 nM
Molecule: C[C@@H]1[C@H](c2cc(F)cc(F)c2F)C[C@H](NC(=O)c2cnc3c(c2)C[C@@]2(C3)C(=O)Nc3ncc(C#N)cc32)C(=O)N1CC(F)(F)F [Example 34]

Ki [2]: 0.011 nM
Molecule: C[C@@H]1[C@H](c2c(F)ccc(F)c2F)C[C@H](NC(=O)c2cnc3c(c2)C[C@@]2(C3)C(=O)Nc3ncc(F)cc32)C(=O)N1CC(F)(F)F [Example 33, (6S)-5′-Fluoro-N-[(3S,5S,6R)-6-methyl-2-oxo-1-(2,2,2-trifluoroethyl)-5-(2,3,6-trifluorophenyl)piperidin-3-yl]-2′-oxo-1′,2′,5,7-tetrahydrospiro[cyclopenta[b]pyridine-6,3′-pyrrolo[2,3-b]pyridine]-3-carboxamide hydrochloride]

Molecule: CGRP(8-37) (VTHRLAGLLSRSGGVVKNNFVPTNVGSKAF-NH2; ends and bridges not checked; UniProt P06881 90-119, looked up, fragment) [a peptide CGRP receptor antagonist]
effect on increased facial blood flow (facial blood flow [3]): inhibited
effect on increase of middle meningeal artery diameter (middle meningeal artery): blocked
